This note sets out measurements from patent US20250017215A1, “LIQUID CARRIER CONCENTRATE COMPRISING AT LEAST ONE BENEFICIAL MICROORGANISM AND USES THEREOF” (priority 2021, published 2025).

One data set has as its system Beauveria bassiana. Nature of the data set: Microbial viability of liquid carrier concentrates upon accelerated storage stability study (shelf-life), colony counting. The data set is classed as cell-based. The settings on record: storage at 25° C. without agitation. The procedure:
(§1) Standard procedure for microbial viability assessment of liquid carrier concentrates upon accelerated storage stability study (Shelf-life assessment) In order to evaluate the shelf-life of liquid carrier concentrate of the fungi, the liquid carrier concentrates were prepared by mixing 5 wt % of a commercial product (biopesticide) containing a beneficial microorganism and 95 wt % of the solvent to be tested.
(§2) The commercial products tested were in powder form, and the beneficial microorganisms in the composition were: • Beauveria bassiana, • Paecilomyces lilacinus.
(§3) For comparison, a control experiment without the solvent was prepared. For Beauveria bassiana and Paecilomyces lilacinus, 5 wt % of the powder commercial product was added to 95 wt % soybean oil, 2-ethylhexyl lactate or isoamyl laurate.
(§4) The preparations were incubated under accelerated temperature test conditions, at 25° C. and the viability of the microorganism was evaluated after 0, 15 days, 1 month, 3 months, 6 months, 9 months, 12 months and 14 months of incubation without agitation. Trials were performed in duplicates.
(§5) To confirm that the microorganisms were viable after determined incubation/storage time, traditional serial dilution and plating of the samples for colony counting were performed.
(§6) For fungi evaluation, samples of 0.1 mL were taken from each preparation and added to 0.9 mL of an aqueous solution containing 0.1% of Tween 80 (polyoxyethylene sorbitan monooleate) to obtain a 10^−1 dilution. Then 0.1 mL of this dilution was added to 0.9 mL of the same aqueous solution successively until the most appropriate dilution was obtained (usually between 10-4 and 10-7). 0.2 mL of the most appropriate dilutions were spread into petri dishes containing the proper culture media for each microorganism and incubated (at 25° C. for Beauveria bassiana and Paecilomyces lilacinus), until the colony grew.
(§7) The number of the colonies on each petri dish was counted and the results are expressed by colony forming units (CFU)/mL.
(§8) Shelf-life assessment was done on two different fungi (Beauveria bassiana and Paecilomyces lilacinus) in Augeo SL191 solvent (formula (I), with R1, R2: methyl, and R3: H) and in three other benchmark solvents or oils according to the experimental procedures described above. For each microorganism, isoamyl laurate was tested in a different run series which explains the difference between its initial microorganism concentration (CFU/mL) and the one of the other three solvents. The recurrent colony counting was done at different incubation times: t=0, 15 days, 1 month, then every month until the CFU/mL value of a sample drops by two log 10 scale (>100 times), i.e. a reduction of 99%.

The subject of a further data set is Paecilomyces lilacinus. The description is as above. The class given is cell-based. The settings on record: storage at 25° C. without agitation. The procedure:
as §1, §2, §3, §4, §5, §6, §7, §8

With `CC1(C)OCC(CO)O1` (stereo not shown) [Augeo SL191, Solketal], the “Viability after 14 months” value in the data set with Beauveria bassiana (14 months) and with Paecilomyces lilacinus (14 months) was “above 1E+06 CFU/mL” each time.

Consider `CCCCC(CC)COC(=O)C(C)O` (stereo not shown) [2-ethyl hexyl lactate, 2-ethylhexyl lactate], for which the “Viability after 1 month” value in the data set with Beauveria bassiana (1 month) and in the data set with Paecilomyces lilacinus (1 month) was “less than 1E+05 CFU/mL” each time.
